The values that follow are results of earlier work, collected in patent EP0475894A1, “Gemfibrozil formulations” (WARNER-LAMBERT COMPANY, priority 1990, dated 1992).

The conditions of the data set: particularly in a highly acidic medium.

For `Cc1ccc(C)c(OCCCC(C)(C)C(=O)O)c1` [Gemfibrozil, 5-(2,5-dimethylphenoxy)-2,2-dimethylpentanoic acid], the solubility in water result was “very poor solubility in water”.
